Tests used:
[1] = tested on: Jurkat-LAT-GFP; assay: in vitro model of HIV-1 latency, Jurkat-LAT-GFP; type: cell-based
[2] = tested on: classical PKCs pathways; assay: cPKC translocation and signalling pathway activation in T cells; type: cell-based
Description: Low concentrations of Bryostatin-1 activate the cPKC-Ras-Raf-ERK pathway and synergize with an HDAC inhibitor, valproic acid (VPA), to activate the transcription factor SP1.

[3] = tested on: transcription factor SP1; assay: activation of transcription factor SP1, combination with valproic acid; type: cell-based; conditions: low concentrations; with HDAC inhibitor valproic acid
[4] = tested on: T cells; assay: transcriptome studies in T cells; type: cell-based; conditions: 10 and 100 nM
[5] = tested on: PBMC isolated from HIV-1 patients; assay: HIV-1 latency ex vivo in PBMC isolated from HIV-1 patients; type: cell-based, human
[6] = Phase I clinical study in HIV-1 patients (NCT02269605); type: in vivo, human; conditions: doses of 10 and 20 μg/m2
[7] = tested on: human HIV-1 receptors CD4 and CXCR4; conditions: low concentrations; cited from earlier work
[8] = tested on: HIV-1; conditions: low concentrations; cited from earlier work
[9] = tested on: HIV-1 latency; conditions: very low concentrations (1-10 nM); in vitro; cited from earlier work
[10] = tested on: HIV; conditions: some HIV-infected patients; cited from earlier work
[11] = concentrations higher than 10 nM

SMILES	reactivation of HIV-1 latency in T cells ([1]; Jurkat-LAT-GFP, via classical PKCs pathways)	reactivation of HIV-1 latency ([1]; lower concentrations (10 nM), ERK activation and nuclear phosphorylation of p65)	activation of NF-κB and MAPKs (JNK and ERK) pathways [2, 11]	translocation of cPKCs [2, 11]	translocation of cPKCs and Ras-GRP1 ([2]; lower concentrations (10 nM))	synergy with valproic acid (VPA) to activate the transcription factor SP1 [3]	gene expression in T cells, low vs. high concentrations [4]	HIV-1 latency ex vivo [5]	adverse events [6]	expression of the human HIV-1 receptors CD4 and CXCR4 [7]	de novo HIV-1 infection [8]	synergy with HDAC inhibitors such as valproic acid to antagonise HIV-1 latency [9]	HIV transcription from latency [10]
CCC/C=C/C=C/C(=O)O[C@H]1/C(=C/C(=O)OC)C[C@H]2C[C@H]([C@@H](C)O)OC(=O)C[C@H](O)C[C@@H]3C[C@H](OC(C)=O)C(C)(C)[C@](O)(C[C@@H]4C/C(=C/C(=O)OC)C[C@H](/C=C/C(C)(C)[C@]1(O)O2)O4)O3 [Bryostatin-1]	re-activates HIV-1 latency	fully reactivates HIV-1 latency	activated the canonical NF-κB and MAPKs (JNK and ERK) pathways	induced translocation of cPKCs to the plasma membrane	translocated cPKCs and Ras-GRP1 to the endoplasmic reticulum	synergize	differentially regulate gene expression	antagonized HIV-1 latency	did not induced significant adverse events	down-regulated	prevent de novo HIV-1 infection	synergizes	–
O=C(CCCCCCC(=O)Nc1ccccc1)NO [Vorinostat]	–	–	–	–	–	–	–	–	–	–	–	–	significant and sustained increase in HIV transcription from latency
